The assay has as its system 616215-338-R-J1-PDC spheroid with HUVEC/MSC, viability. The assay is described as follows: Anticancer human tumor 616215-338-R-J1-PDC patient-derived colon adenocarcinoma cell line growth inhibition [TAK]. The following applies: for viability, T/C: stronger effect = lower value. The procedure, abridged: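 Drug combinations, each paired with TAK-243 or ipatasertib, were tested on multi-cell spheroids of 60% malignant cells, 25% HUVEC and 15% hMSC. Top concentrations were at or near the clinical Cmax (10 microM if undetermined), decreasing by half-log; viability is given as % test/control.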

Values joined by “and” are separate entries in the source; they are usually repeats but may differ in a detail not shown here. Equal values may be shown once.
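Note: spheroids exposed to drugs for 7 days before readout.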

For `CCCS(=O)(=O)Nc1ccc(F)c(C(=O)c2c[nH]c3ncc(-c4ccc(Cl)cc4)cc23)c1F` + CC(C)NCC(C(=O)N1CCN(c2ncnc3c2C(C)CC3O)CC1)c1ccc(Cl)cc1, the IC50 is 7500 nM (curve of first compound, second compound 0.3 µM); 6750 nM (curve of first compound, second compound 0.949 µM); 2760 nM (curve of first compound, second compound 3 µM); < 316 nM (curve of first compound, second compound 9.49 µM); < 316 nM (curve of first compound, second compound 30 µM). In addition, the viability, T/C was 90.8% (second compound 0.3 µM, first compound 0.316 µM); 98.1% (second compound 0.3 µM, first compound 1 µM); 103% (second compound 0.3 µM, first compound 3.16 µM); 23.8% (second compound 0.3 µM, first compound 10 µM); 3.87% (second compound 0.3 µM, first compound 31.6 µM); 75% (second compound 0.3 µM, first compound 100 µM). Further, the viability, T/C runs as follows: (second compound 0.949 µM, first compound 0.316 µM) 107%; (second compound 0.949 µM, first compound 1 µM) 114%; (second compound 0.949 µM, first compound 3.16 µM) 104%; (second compound 0.949 µM, first compound 10 µM) 16.6%; (second compound 0.949 µM, first compound 31.6 µM) 1.77%; (second compound 0.949 µM, first compound 100 µM) 46.8%. The viability, T/C is 90.5% (second compound 3 µM, first compound 0.316 µM); 76.8% (second compound 3 µM, first compound 1 µM); 48% (second compound 3 µM, first compound 3.16 µM); 7.53% (second compound 3 µM, first compound 10 µM); 0.1% (second compound 3 µM, first compound 31.6 µM); 3.35% (second compound 3 µM, first compound 100 µM). The viability, T/C was 29.1% (second compound 9.49 µM, first compound 0.316 µM); 28.8% (second compound 9.49 µM, first compound 1 µM); 23.2% (second compound 9.49 µM, first compound 3.16 µM); 3.54% (second compound 9.49 µM, first compound 10 µM); 0.12% (second compound 9.49 µM, first compound 31.6 µM); 1.39% (second compound 9.49 µM, first compound 100 µM). Also, the viability, T/C (second compound 30 µM, first compound 0.316 µM) is 14.1%; the viability, T/C (second compound 30 µM, first compound 1 µM) is 15.2%; the viability, T/C (second compound 30 µM, first compound 3.16 µM) was 9.06%; the viability, T/C (second compound 30 µM, first compound 10 µM) is 0.4%; the viability, T/C (second compound 30 µM, first compound 31.6 µM) is 0.13%; the viability, T/C (second compound 30 µM, first compound 100 µM) was 0.3%.
For the molecule `CC(C)n1nc(-c2ccc3oc(N)nc3c2)c2c(N)ncnc21`, the viability, T/C runs as follows: (compound 0.000316 µM) 95.9% and 105%; (compound 0.001 µM) 115% and 107%; (compound 0.00316 µM) 99.9% and 114%; (compound 0.01 µM) 112% and 130%; (compound 0.0316 µM) 127% and 146%; (compound 0.1 µM) 94% and 38%. The 50% inhibitory concentration (IC50) (curve of compound) was > 100 nM and 84.7 nM.

As usually defined, the IC50 is the concentration that inhibits the measured activity by half. What is called viability, T/C is the result in the treated group divided by that in the control group, in per cent.

(Values after PubChem BioAssay AID2060352 (Molecular Pharmacology Branch, DTP, NCI, 2025).)
